Results from ChEMBL document CHEMBL3885861, “Open TG-GATES”.

Species: Rattus norvegicus
Experiment: Open TG-GATES - Regimen: Daily Repeat
Type: toxicity, organism-based, Sprague-Dawley
Design: regimen Daily Repeat, gender Male, age 6 weeks
Settings: in vivo, po, route gavage; for APTT / Bas / Eos / Fbg / Hb / Ht / Lym / MCH / MCHC / MCV / Mono / Neu / PT / Plat / RBC / Ret / WBC: tissue Blood; for KIDNEY_L / KIDNEY_R / KIDNEY_TOTAL: tissue Kidney; for LIVER: tissue Liver; for A/G / ALP / ALT / AST / BUN / CRE / Ca / Cl / DBIL / GLC / IP / K / LDH / Na / PL / RALB / TBIL / TC / TG / TP / gamma-GTP: tissue Plasma
[1] = 0 mg/kg, 72 h, dose level Control, time 3 day
[2] = 0 mg/kg, […], dose level Control, time 7 day
[3] = 0 mg/kg, […], dose level Control, time 14 day
[4] = 0 mg/kg, […], dose level Control, time 28 day
[5] = 100 mg/kg, 72 h, dose level Low, time 3 day
[6] = 100 mg/kg, […], dose level Low, time 7 day
[7] = 100 mg/kg, […], dose level Low, time 14 day
[8] = 100 mg/kg, […], dose level Low, time 28 day

## Cc1nnc2n1-c1ccc(Cl)cc1C(c1ccccc1Cl)=NC2 [TRIAZOLAM]
[1]
  TERMINAL_BW: 223.3 g
  APTT: 19.2 s
  Bas: 0%
  Eos: 1.2%
  Fbg: 272.8 mg/dL
  Hb: 13.7 g/dL
  Ht: 40.9%
  Lym: 75.6%
  MCH: 21 pg
  MCHC: 33.5%
  MCV: 62.7 fL
  Mono: 3%
  Neu: 19.2%
  PT: 13 s
  Plat: 121.4 x10_4/uL
  RBC: 651.8 x10_4/ul
  Ret: 7.4%
  WBC: 85.5 x10_2/uL
  KIDNEY_L: 1 g
  KIDNEY_R: 1 g
  KIDNEY_TOTAL: 1.9 g
  LIVER: 10.5 g
  A/G: 0.9
  ALP: 1815 IU/L
  ALT: 48.2 IU/L
  AST: 75.8 IU/L
  BUN: 15 mg/dL
  CRE: 0.2 mg/dL
  Ca: 11.3 mg/dL
  Cl: 104.8 meq/L
  DBIL: 0.014 mg/dL
  GLC: 172.2 mg/dL
  IP: 8.4 mg/dL
  K: 4 meq/L
  LDH: 74.8 IU/L
  Na: 143.2 meq/L
  PL: 168.8 mg/dL
  RALB: 2.6 g/dL
  TBIL: 0.054 mg/dL
  TC: 86.4 mg/dL
  TG: 126 mg/dL
  TP: 5.6 g/dL
  gamma-GTP: 1.2 IU/L
[2]
  TERMINAL_BW: 259.3 g
  APTT: 21.5 s
  Bas: 0%
  Eos: 1.2%
  Fbg: 262.4 mg/dL
  Hb: 13.7 g/dL
  Ht: 40.7%
  Lym: 76.4%
  MCH: 20.6 pg
  MCHC: 33.7%
  MCV: 61.2 fL
  Mono: 2.4%
  Neu: 19.4%
  PT: 12.8 s
  Plat: 126.9 x10_4/uL
  RBC: 665.6 x10_4/ul
  Ret: 5.6%
  WBC: 92.9 x10_2/uL
  KIDNEY_L: 1.1 g
  KIDNEY_R: 1.1 g
  KIDNEY_TOTAL: 2.2 g
  LIVER: 11.8 g
  A/G: 0.9
  ALP: 1652.6 IU/L
  ALT: 45.4 IU/L
  AST: 75 IU/L
  BUN: 16.8 mg/dL
  CRE: 0.2 mg/dL
  Ca: 10.9 mg/dL
  Cl: 105.8 meq/L
  DBIL: 0.01 mg/dL
  GLC: 188.2 mg/dL
  IP: 7.6 mg/dL
  K: 4.3 meq/L
  LDH: 73.6 IU/L
  Na: 141.8 meq/L
  PL: 161.6 mg/dL
  RALB: 2.6 g/dL
  TBIL: 0.042 mg/dL
  TC: 85 mg/dL
  TG: 122.8 mg/dL
  TP: 5.6 g/dL
  gamma-GTP: 1 IU/L
[3]
  TERMINAL_BW: 313.4 g
  APTT: 18.7 s
  Bas: 0.4%
  Eos: 1%
  Fbg: 250.2 mg/dL
  Hb: 14.4 g/dL
  Ht: 43.9%
  Lym: 74.6%
  MCH: 19.9 pg
  MCHC: 32.8%
  MCV: 60.6 fL
  Mono: 2.4%
  Neu: 21%
  PT: 13.6 s
  Plat: 122.6 x10_4/uL
  RBC: 723.8 x10_4/ul
  Ret: 4.5%
  WBC: 116.9 x10_2/uL
  KIDNEY_L: 1.2 g
  KIDNEY_R: 1.2 g
  KIDNEY_TOTAL: 2.4 g
  LIVER: 13.3 g
  A/G: 0.8
  ALP: 1514.4 IU/L
  ALT: 46 IU/L
  AST: 79.6 IU/L
  BUN: 15.4 mg/dL
  CRE: 0.2 mg/dL
  Ca: 10.9 mg/dL
  Cl: 104.4 meq/L
  DBIL: 0.012 mg/dL
  GLC: 172.4 mg/dL
  IP: 7.1 mg/dL
  K: 3.9 meq/L
  LDH: 90 IU/L
  Na: 143 meq/L
  PL: 167.4 mg/dL
  RALB: 2.6 g/dL
  TBIL: 0.044 mg/dL
  TC: 82.4 mg/dL
  TG: 135.6 mg/dL
  TP: 5.7 g/dL
  gamma-GTP: 1.4 IU/L
[4]
  TERMINAL_BW: 389.2 g
  APTT: 18.6 s
  Bas: 0.4%
  Eos: 1.4%
  Fbg: 262.6 mg/dL
  Hb: 15.3 g/dL
  Ht: 45.3%
  Lym: 79.6%
  MCH: 18.8 pg
  MCHC: 33.7%
  MCV: 55.8 fL
  Mono: 2%
  Neu: 15.8%
  PT: 13.4 s
  Plat: 106.8 x10_4/uL
  RBC: 812.8 x10_4/ul
  Ret: 2.1%
  WBC: 76.6 x10_2/uL
  KIDNEY_L: 1.4 g
  KIDNEY_R: 1.4 g
  KIDNEY_TOTAL: 2.7 g
  LIVER: 15.3 g
  A/G: 0.8
  ALP: 1373.8 IU/L
  ALT: 36.6 IU/L
  AST: 62 IU/L
  BUN: 15.4 mg/dL
  CRE: 0.2 mg/dL
  Ca: 10.7 mg/dL
  Cl: 105.8 meq/L
  DBIL: 0.008 mg/dL
  GLC: 185.8 mg/dL
  IP: 6.3 mg/dL
  K: 4.2 meq/L
  LDH: 57 IU/L
  Na: 144 meq/L
  PL: 158.4 mg/dL
  RALB: 2.7 g/dL
  TBIL: 0.056 mg/dL
  TC: 72.8 mg/dL
  TG: 159.8 mg/dL
  TP: 6.1 g/dL
  gamma-GTP: 1 IU/L
[5]
  TERMINAL_BW: 218.3 g
  APTT: 21.4 s
  Bas: 0%
  Eos: 1.2%
  Fbg: 274.2 mg/dL
  Hb: 13.8 g/dL
  Ht: 41.1%
  Lym: 74.2%
  MCH: 21.5 pg
  MCHC: 33.7%
  MCV: 63.9 fL
  Mono: 3.8%
  Neu: 20%
  PT: 13.2 s
  Plat: 117.9 x10_4/uL
  RBC: 643 x10_4/ul
  Ret: 6.6%
  WBC: 108.6 x10_2/uL
  KIDNEY_L: 1 g
  KIDNEY_R: 1 g
  KIDNEY_TOTAL: 1.9 g
  LIVER: 10.3 g
  A/G: 0.9
  ALP: 1550.6 IU/L
  ALT: 53.8 IU/L
  AST: 79 IU/L
  BUN: 14.2 mg/dL
  CRE: 0.2 mg/dL
  Ca: 11.1 mg/dL
  Cl: 104.6 meq/L
  DBIL: 0.012 mg/dL
  GLC: 166.2 mg/dL
  IP: 8.1 mg/dL
  K: 4 meq/L
  LDH: 88.2 IU/L
  Na: 141 meq/L
  PL: 142.4 mg/dL
  RALB: 2.6 g/dL
  TBIL: 0.054 mg/dL
  TC: 75.4 mg/dL
  TG: 76 mg/dL
  TP: 5.5 g/dL
  gamma-GTP: 1 IU/L
[6]
  TERMINAL_BW: 251.1 g
  APTT: 20.5 s
  Bas: 0%
  Eos: 0.8%
  Fbg: 251.8 mg/dL
  Hb: 13.9 g/dL
  Ht: 41.6%
  Lym: 74.8%
  MCH: 20.9 pg
  MCHC: 33.5%
  MCV: 62.4 fL
  Mono: 2.2%
  Neu: 21.4%
  PT: 13 s
  Plat: 116.7 x10_4/uL
  RBC: 667 x10_4/ul
  Ret: 6.1%
  WBC: 109.2 x10_2/uL
  KIDNEY_L: 1.1 g
  KIDNEY_R: 1 g
  KIDNEY_TOTAL: 2.1 g
  LIVER: 11.9 g
  A/G: 0.9
  ALP: 1700.8 IU/L
  ALT: 48.8 IU/L
  AST: 75.6 IU/L
  BUN: 16.6 mg/dL
  CRE: 0.2 mg/dL
  Ca: 10.9 mg/dL
  Cl: 105.2 meq/L
  DBIL: 0.012 mg/dL
  GLC: 192.4 mg/dL
  IP: 6.9 mg/dL
  K: 4.2 meq/L
  LDH: 77.4 IU/L
  Na: 141.4 meq/L
  PL: 157.4 mg/dL
  RALB: 2.6 g/dL
  TBIL: 0.036 mg/dL
  TC: 78.6 mg/dL
  TG: 104.8 mg/dL
  TP: 5.5 g/dL
  gamma-GTP: 1.4 IU/L
[7]
  TERMINAL_BW: 311.7 g
  APTT: 17.9 s
  Bas: 0.8%
  Eos: 1%
  Fbg: 253.2 mg/dL
  Hb: 14.4 g/dL
  Ht: 43.7%
  Lym: 77.2%
  MCH: 20.2 pg
  MCHC: 32.9%
  MCV: 61.6 fL
  Mono: 2.4%
  Neu: 18.4%
  PT: 13.4 s
  Plat: 117.2 x10_4/uL
  RBC: 710.8 x10_4/ul
  Ret: 4.8%
  WBC: 98 x10_2/uL
  KIDNEY_L: 1.2 g
  KIDNEY_R: 1.2 g
  KIDNEY_TOTAL: 2.4 g
  LIVER: 13.6 g
  A/G: 0.8
  ALP: 1617 IU/L
  ALT: 40.2 IU/L
  AST: 72.2 IU/L
  BUN: 16.2 mg/dL
  CRE: 0.2 mg/dL
  Ca: 10.8 mg/dL
  Cl: 104.8 meq/L
  DBIL: 0.008 mg/dL
  GLC: 189.6 mg/dL
  IP: 7.5 mg/dL
  K: 3.8 meq/L
  LDH: 83.4 IU/L
  Na: 142.6 meq/L
  PL: 151.8 mg/dL
  RALB: 2.7 g/dL
  TBIL: 0.04 mg/dL
  TC: 75 mg/dL
  TG: 118.2 mg/dL
  TP: 5.8 g/dL
  gamma-GTP: 1 IU/L
[8]
  TERMINAL_BW: 393.2 g
  APTT: 17.1 s
  Bas: 0.2%
  Eos: 1.2%
  Fbg: 277.4 mg/dL
  Hb: 15.2 g/dL
  Ht: 45.2%
  Lym: 78.4%
  MCH: 19 pg
  MCHC: 33.6%
  MCV: 56.6 fL
  Mono: 1.6%
  Neu: 17.6%
  PT: 13.2 s
  Plat: 110.7 x10_4/uL
  RBC: 798 x10_4/ul
  Ret: 2.4%
  WBC: 93.4 x10_2/uL
  KIDNEY_L: 1.4 g
  KIDNEY_R: 1.4 g
  KIDNEY_TOTAL: 2.8 g
  LIVER: 15.5 g
  A/G: 0.8
  ALP: 1207.4 IU/L
  ALT: 42 IU/L
  AST: 64.8 IU/L
  BUN: 15.2 mg/dL
  CRE: 0.2 mg/dL
  Ca: 10.7 mg/dL
  Cl: 105 meq/L
  DBIL: 0.01 mg/dL
  GLC: 178.8 mg/dL
  IP: 6.4 mg/dL
  K: 4.1 meq/L
  LDH: 67.2 IU/L
  Na: 143.6 meq/L
  PL: 142.6 mg/dL
  RALB: 2.7 g/dL
  TBIL: 0.054 mg/dL
  TC: 68.4 mg/dL
  TG: 125.4 mg/dL
  TP: 6.2 g/dL
  gamma-GTP: 0.8 IU/L
